According to patent US20250221410A1, “SUBSTITUTED 2-C-AZINES AND SALTS THEREOF, AND USE THEREOF AS HERBICIDAL ACTIVE SUBSTANCES” (BAYER AKTIENGESELLSCHAFT, priority 2022, published 2025):

Columns and labels:
Type in all cases: in vivo
[1] = test system: SETVI: Setaria viridis; test: Pre-emergence herbicide efficacy at 1280 g/ha, SETVI; conditions: visual scoring vs untreated controls
Excerpt: (§1) Seeds of mono- and dicotyledonous weed plants were placed in plastic pots in sandy loam soil (doubly sown with one species each of mono- or dicotyledonous weed plants per pot) and covered with soil. The compounds of the invention, formulated in the form of wettable powders (WP) or as emulsion concentrates (EC), were then applied to the surface of the covering soil as aqueous suspension or emulsion with addition of 0.5% additive at a water application rate of 600 litres per hectare (converted). After the treatment, the pots were placed in a greenhouse and kept under good growth conditions for the test plants. After about 3 weeks, the efficacy of the preparations was scored visually in comparison with untreated controls as percentages. For example, 100% activity=the plants have died, 0% activity=like control plants. Tables C1 to C12 below show the effects of selected compounds of the general formula (I) according to Table 1 on various harmful plants and at an application rate corresponding to 1280 g/ha, which were obtained by the trial procedure specified above.

[2] = test system: AMARE: Amaranthus retroflexus; test: Post-emergence herbicidal efficacy at 1280 g/ha, AMARE; conditions: rated visually after about 3 weeks vs untreated controls, 100% = plants have died, 0% = like control plants
Procedure: (§2) Seeds of mono- and dicotyledonous weed plants were placed in plastic pots in sandy loam soil (doubly sown with in each case one species of mono- or dicotyledonous weed plants per pot), covered with soil and cultivated in a greenhouse under controlled growth conditions. 2 to 3 weeks after sowing, the test plants were treated at the one-leaf stage. The compounds of the invention, formulated in the form of wettable powders (WP) or as emulsion concentrates (EC), were applied to the green parts of the plants as aqueous suspension or emulsion with addition of 0.5% additive at a water application rate equivalent to 600 litres per hectare. After the test plants had been kept in the greenhouse under optimum growth conditions for about 3 weeks, the activity of the preparations was rated visually in comparison to untreated controls. For example, 100% activity=the plants have died, 0% activity=like control plants. Tables A1 to A12 below show the effects of selected compounds of the general formula (I) according to Table 1 on various harmful plants and at an application rate corresponding to 1280 g/ha, which were obtained by the trial procedure specified above.

[3] = test system: POAAN: Poa annua; test: Post-emergence herbicidal efficacy at 1280 g/ha, POAAN; conditions: visual rating about 3 weeks after treatment vs untreated controls
Procedure: as §2

[4] = test system: POAAN: Poa annua; test: Pre-emergence herbicide efficacy at 1280 g/ha, POAAN; conditions: visual scoring after about 3 weeks vs untreated controls
Excerpt: as §1

[5] = test system: STEME: Stellaria media; test: Post-emergence herbicidal efficacy at 1280 g/ha, STEME; conditions: visual rating about 3 weeks after treatment vs untreated controls
Procedure: as §2

[6] = test system: VERPE: Veronica persica; test: Pre-emergence herbicide efficacy at 1280 g/ha, VERPE; conditions: visual scoring vs untreated controls
Excerpt: as §1

[7] = test system: AMARE: Amaranthus retroflexus; test: Pre-emergence herbicide efficacy at 1280 g/ha, AMARE; conditions: visual scoring after about 3 weeks vs untreated controls
Excerpt: as §1

[8] = test system: ABUTH: Abutilon theophrasti; test: Pre-emergence herbicide efficacy at 1280 g/ha, ABUTH; conditions: visual scoring after about 3 weeks vs untreated controls
Excerpt: as §1

[9] = test system: ECHCG: Echinochloa crus-galli; test: Pre-emergence herbicide efficacy at 1280 g/ha, ECHCG; conditions: visual scoring after about 3 weeks vs untreated controls
Excerpt: as §1

[10] = test system: VERPE: Veronica persica; test: Post-emergence herbicidal efficacy at 1280 g/ha, VERPE; conditions: visual rating about 3 weeks after treatment vs untreated controls
Procedure: as §2

[11] = test system: STEME: Stellaria media; test: Pre-emergence herbicide efficacy at 1280 g/ha, STEME; conditions: visual scoring vs untreated controls
Excerpt: as §1

[12] = test system: KCHSC: Kochia scoparia; test: Post-emergence herbicidal efficacy at 1280 g/ha, KCHSC; conditions: visual rating about 3 weeks after treatment vs untreated controls
Procedure: as §2

[13] = test system: DIGSA: Digitaria sanguinalis; test: Pre-emergence herbicide efficacy at 1280 g/ha, DIGSA; conditions: visual scoring after about 3 weeks vs untreated controls
Excerpt: as §1

[14] = test system: ABUTH: Abutilon theophrasti; test: Post-emergence herbicidal efficacy at 1280 g/ha, ABUTH; conditions: rated visually after about 3 weeks vs untreated controls, 100% = plants have died, 0% = like control plants
Procedure: as §2

[15] = test system: SETVI: Setaria viridis; test: Post-emergence herbicidal efficacy at 1280 g/ha, SETVI; conditions: visual rating about 3 weeks after treatment vs untreated controls
Procedure: as §2

[16] = test system: ECHCG: Echinochloa crus-galli; test: Post-emergence herbicidal efficacy at 1280 g/ha, ECHCG; conditions: rated visually after about 3 weeks vs untreated controls, 100% = plants have died, 0% = like control plants
Procedure: as §2

[17] = test system: KCHSC: Kochia scoparia; test: Pre-emergence herbicide efficacy at 1280 g/ha, KCHSC; conditions: visual scoring after about 3 weeks vs untreated controls
Excerpt: as §1

[18] = test system: AMARE: Amaranthus retroflexus; test: Post-emergence herbicidal efficacy at 80 g/ha, AMARE; conditions: visual rating about 3 weeks after treatment vs untreated controls
Procedure: Seeds of monocotyledonous and dicotyledonous weeds and crop plants were placed in sandy loam in plastic or organic planting pots, covered with soil and cultivated in a greenhouse under controlled growth conditions. 2 to 3 weeks after sowing, the test plants were treated at the one-leaf stage. The compounds of the invention, formulated in the form of wettable powders (WP) or as emulsion concentrates (EC), were then sprayed onto the green parts of the plants as aqueous suspension or emulsion with addition of 0.5% additive at a water application rate of 600 l/ha (converted). After the test plants had been kept in the greenhouse under optimum growth conditions for about 3 weeks, the activity of the preparations was rated visually in comparison to untreated controls. For example, 100% activity=the plants have died, 0% activity=like control plants. Tables B1 to B10 below show the effects of selected compounds of the general formula (I) according to Table 1 on various harmful plants and an application rate corresponding to 80 g/ha, which were obtained by the experimental procedure mentioned above.

[19] = test system: AMARE: Amaranthus retroflexus; test: Pre-emergence herbicide efficacy at 80 g/ha, AMARE; conditions: scored visually after about 3 weeks
Excerpt: Seeds of monocotyledonous and dicotyledonous weed plants and crop plants were placed in plastic or organic planting pots and covered with soil. The compounds of the invention, formulated in the form of wettable powders (WP) or as emulsion concentrates (EC), were then applied to the surface of the covering soil as aqueous suspension or emulsion with addition of 0.5% additive at a water application rate equivalent to 600 l/ha. After the treatment, the pots were placed in a greenhouse and kept under good growth conditions for the test plants. After about 3 weeks, the efficacy of the preparations was scored visually in comparison with untreated controls as percentages. For example, 100% activity=the plants have died, 0% activity=like control plants. Tables D1 to D12 below show the effects of selected compounds of the general formula (I) according to Table 1 on various harmful plants and an application rate corresponding to 80 g/ha, which were obtained by the experimental procedure mentioned above.

Structure (SMILES)	Pre-emergence efficacy against SETVI in % [1] [%]	Post-emergence efficacy at 1280 g/ha against AMARE in % [2] [%]	Post-emergence efficacy against POAAN [3] [%]	Pre-emergence efficacy against POAAN [4] [%]	Post-emergence efficacy against STEME [5] [%]	Pre-emergence efficacy against VERPE in % [6] [%]	Pre-emergence efficacy against AMARE [7] [%]	Post-emergence efficacy against VERPE [10] [%]	Pre-emergence efficacy against STEME in % [11] [%]	Post-emergence efficacy against KCHSC [12] [%]	Pre-emergence efficacy against DIGSA [13] [%]	Post-emergence efficacy at 1280 g/ha against ABUTH in % [14] [%]	Post-emergence efficacy against AMARE [18] [%]	Pre-emergence efficacy against AMARE in % [19] [%]	other results
Fc1ccc(Oc2ccccc2Cc2ncccn2)cc1 [Example 1-98]	90	100	90	90	90	90	100	100	90	90	100				Pre-emergence efficacy against ABUTH [8]: 100%; Pre-emergence efficacy against ECHCG [9]: 90%
Fc1ccc(Cc2ccccc2Oc2ncc(Cl)cc2F)nc1 [Example 1-103]	100	100	100	90	100	90	100	100	100	90	90	100			Post-emergence efficacy against SETVI [15]: 90%; Pre-emergence efficacy against ABUTH [8]: 100%; Pre-emergence efficacy against ECHCG [9]: 90%
Fc1ccc(Sc2ccccc2Cc2ncc(Cl)cc2F)cc1 [Example 1-106]		100	100		100		90	100		90		90			Post-emergence efficacy at 1280 g/ha against ECHCG in % [16]: 90%
Fc1ccc(-c2ccccc2Cc2ncc(Cl)cc2F)cc1F [Example 1-127]	100	100	100	90	100	90	100	100	90	100	90	100			Post-emergence efficacy against SETVI [15]: 90%; Pre-emergence efficacy against KCHSC [17]: 90%
[O-][S+](c1ccc(F)cc1)c1ccccc1Cc1ncc(Cl)cn1 (stereo not drawn) [Example 1-142]													80		
O=S(=O)(CCC(F)(F)F)c1ccccc1Cc1ncc(F)cn1 [Example 1-150]													80		
Fc1cccc(Cc2ncc(Cl)cn2)c1Oc1ncc(Cl)cn1 [Example 1-151]													80	80	
Fc1cnc(Cc2cccc(F)c2Oc2ncc(F)cn2)nc1 [Example 1-153]													90	100	
Cc1nc(-c2ccccc2Cc2ncc(Cl)cn2)no1 [Example 1-159]													80	90	
FC(F)c1nc(-c2ccccc2Cc2ncc(Cl)cn2)no1 [Example 1-160]													100	100	
